Measured values from patent US20250221998A1, “DISCOVERY OF COVALENT EGFR INHIBITOR THROUGH CYSTEINE 775” (Dana-Farber Cancer Institute, Inc., priority 2022, published 2025).

Legend:
[1] = molecular target: EGFR mutant L858R Ba/F3 cells (Homo sapiens, UniProt P00533, L858R, cells depend on it); assay: Ba/F3 cell proliferation (Cell Titer Glo), EGFR L858R; assay type: cell-based, murine; settings: 72 hours exposure, read-out: L858R BaF3 (μM), inhibitory activity against EGFR mutants
Text: (§1) The EGFR mutant L858R Ba/F3 cells have been previously described (Zhou, W., et al. Nature 462, 2009, 1070-1074). The EGFR C797S and C775S mutations were introduced via site directed mutagenesis using the Quick Change Site-Directed Mutagenesis kit into a vector containing EGFR L858R mutation (Stratagene; La Jolla, CA) according to the manufacturer's instructions. All constructs were confirmed by DNA sequencing. The constructs were then shuttled into the retroviral vector JP1540 by either using the Cre-recombination system (Agilent Technologies, Santa Clara, CA) or the In-fusion HD Cloning kit (Takara Bio USA, Inc.; Mountain view, CA). Ba/F3 cells were then infected with retrovirus per standard protocols, as described previously (Zhou, et al, Nature 2009). Stable clones were obtained by selection in puromycin (2 ug/ml). All BaF/3 mutant cells were maintained in RPMI 1640 (Cellgro; Mediatech Inc., Herndon, CA) supplemented with 10% FBS, 100 units/mL penicillin, 100 units/mL streptomycin.
(§2) Growth and inhibition of growth was assessed by the Cell Titer Glo assay (Promega, Madison, WI) and was performed according to the manufacturer's instructions. The Cell Titer Glo assay is a luminescence-based method used to determine the number of viable cells based on quantitation of the ATP present, which is directly proportional to the amount of metabolically active cells present. Ba/F3 cells of different EGFR genotypes were exposed to compounds for 72 hours and the number of cells used per experiment was determined empirically as has been previously established (Zhou, et al., Nature 2009). All experimental points were set up in triplicates in 384-well plates. […] The curves were fitted using a non-linear regression model with a sigmoidal dose response.
(§3) For inhibitory activity against EGFR mutants, the following designations are used: ≤0·25 μM=A, 0·25 μM˜0.5 μM=B, 0.5 μM˜2.5 μM=C, ≥2.5 μM=D.

[2] = molecular target: EGFR L858R/C797S Ba/F3 cells (Homo sapiens, UniProt P00533, C797S/L858R, cells depend on it); assay: Ba/F3 cell proliferation (Cell Titer Glo), EGFR L858R/C797S; assay type: cell-based, murine; settings: 72 hours exposure, read-out: L858R/C797S (μM), inhibitory activity against EGFR mutants
Chain of EGFR L858R/C797S Ba/F3 cells (P00533 whole entry C797S/L858R): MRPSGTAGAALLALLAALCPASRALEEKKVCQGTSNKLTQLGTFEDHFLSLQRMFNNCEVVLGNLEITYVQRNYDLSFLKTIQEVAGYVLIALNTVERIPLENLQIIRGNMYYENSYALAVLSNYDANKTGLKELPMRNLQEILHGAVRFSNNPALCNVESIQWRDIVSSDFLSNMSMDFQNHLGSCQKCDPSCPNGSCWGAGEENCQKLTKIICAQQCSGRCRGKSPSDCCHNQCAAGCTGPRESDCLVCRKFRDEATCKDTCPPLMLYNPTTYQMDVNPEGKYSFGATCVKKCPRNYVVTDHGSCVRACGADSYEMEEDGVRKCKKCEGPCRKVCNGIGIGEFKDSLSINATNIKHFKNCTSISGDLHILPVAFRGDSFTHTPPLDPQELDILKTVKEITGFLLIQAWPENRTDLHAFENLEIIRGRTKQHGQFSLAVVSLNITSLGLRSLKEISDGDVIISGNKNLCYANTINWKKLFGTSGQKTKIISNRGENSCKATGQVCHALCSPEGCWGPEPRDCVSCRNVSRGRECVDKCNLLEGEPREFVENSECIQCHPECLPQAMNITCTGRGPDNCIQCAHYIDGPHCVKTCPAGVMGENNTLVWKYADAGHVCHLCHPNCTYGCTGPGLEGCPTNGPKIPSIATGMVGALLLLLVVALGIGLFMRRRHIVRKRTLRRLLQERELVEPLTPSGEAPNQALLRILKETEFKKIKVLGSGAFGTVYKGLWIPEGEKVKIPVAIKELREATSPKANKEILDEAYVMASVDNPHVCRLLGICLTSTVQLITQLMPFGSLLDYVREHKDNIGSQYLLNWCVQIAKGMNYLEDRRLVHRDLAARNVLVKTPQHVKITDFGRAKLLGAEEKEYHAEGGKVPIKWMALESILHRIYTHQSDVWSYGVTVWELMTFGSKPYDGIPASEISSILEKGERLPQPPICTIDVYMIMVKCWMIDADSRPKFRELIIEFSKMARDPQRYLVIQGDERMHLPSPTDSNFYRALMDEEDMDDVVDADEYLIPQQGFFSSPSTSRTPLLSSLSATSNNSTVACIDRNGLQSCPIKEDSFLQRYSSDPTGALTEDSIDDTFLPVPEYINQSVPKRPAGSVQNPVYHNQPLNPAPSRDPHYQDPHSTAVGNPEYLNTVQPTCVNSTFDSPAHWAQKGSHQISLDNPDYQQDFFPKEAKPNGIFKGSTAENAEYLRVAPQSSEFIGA
Text: as §1, §2, §3

Chain of EGFR mutant L858R Ba/F3 cells (P00533 whole entry L858R, the tested form may be a part): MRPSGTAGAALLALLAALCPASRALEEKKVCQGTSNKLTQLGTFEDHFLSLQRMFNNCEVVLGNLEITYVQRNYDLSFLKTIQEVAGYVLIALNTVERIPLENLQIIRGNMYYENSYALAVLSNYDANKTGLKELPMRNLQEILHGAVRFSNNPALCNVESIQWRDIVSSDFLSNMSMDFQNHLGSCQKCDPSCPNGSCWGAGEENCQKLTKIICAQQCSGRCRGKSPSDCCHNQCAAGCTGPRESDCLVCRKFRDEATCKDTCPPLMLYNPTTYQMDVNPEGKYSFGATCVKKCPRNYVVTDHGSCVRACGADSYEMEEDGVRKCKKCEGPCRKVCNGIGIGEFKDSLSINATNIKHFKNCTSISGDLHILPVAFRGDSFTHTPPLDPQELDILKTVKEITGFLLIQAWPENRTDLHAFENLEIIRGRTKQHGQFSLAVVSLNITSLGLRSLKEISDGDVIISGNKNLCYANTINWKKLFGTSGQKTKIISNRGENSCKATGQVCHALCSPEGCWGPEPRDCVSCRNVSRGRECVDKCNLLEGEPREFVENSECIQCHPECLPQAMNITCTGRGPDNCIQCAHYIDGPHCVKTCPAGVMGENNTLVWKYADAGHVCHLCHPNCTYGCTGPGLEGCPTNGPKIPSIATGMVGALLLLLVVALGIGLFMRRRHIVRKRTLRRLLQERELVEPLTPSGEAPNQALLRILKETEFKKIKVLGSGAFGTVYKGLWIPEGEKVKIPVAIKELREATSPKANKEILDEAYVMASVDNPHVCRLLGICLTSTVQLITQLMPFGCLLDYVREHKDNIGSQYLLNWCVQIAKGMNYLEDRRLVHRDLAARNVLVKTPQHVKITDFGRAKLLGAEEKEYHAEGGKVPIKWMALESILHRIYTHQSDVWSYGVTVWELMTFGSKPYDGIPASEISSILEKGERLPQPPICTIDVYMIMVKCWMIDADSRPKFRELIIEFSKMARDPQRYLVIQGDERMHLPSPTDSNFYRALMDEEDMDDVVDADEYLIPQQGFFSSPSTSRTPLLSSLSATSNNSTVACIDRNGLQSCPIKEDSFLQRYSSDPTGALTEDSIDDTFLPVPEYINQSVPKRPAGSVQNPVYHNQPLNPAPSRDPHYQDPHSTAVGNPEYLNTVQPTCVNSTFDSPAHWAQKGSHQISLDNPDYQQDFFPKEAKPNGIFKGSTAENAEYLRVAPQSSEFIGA

Compound	GI50 [1]	GI50 [2]
C=CC(=O)N1CCN(c2cc3cnc(Nc4ccc(N5CCN(C)CC5)cc4)nc3n(C)c2=O)C2CC21 (stereo not drawn) [Compound 024, 8-methyl-2-[4-(4-methylpiperazin-1-yl)anilino]-6-(5-prop-2-enoyl-2,5-diazabicyclo[4.1.0]heptan-2-yl)pyrido[2,3-d]pyrimidin-7-one]	≥ 2.5 µM	≥ 2.5 µM
C=CC(=O)N1CCN(c2cc3cnc(N)nc3n([C@H]3CC[C@](C)(O)CC3)c2=O)c2cccc(C)c21 [Compound 087, 6-(4-acryloyl-5-methyl-3,4-dihydroquinoxalin-1 (2H)-yl)-2-amino-8-((1r,4r)-4-hydroxy-4-methylcyclohexyl)pyrido[2,3-d]pyrimidin-7 (8H)-one]	≤ 0.25 µM	≤ 0.25 µM
C=CC(=O)N1CCN(c2cc3cnc(NC4CC4)nc3n(C3CCOC3)c2=O)c2cccc(C)c21 (stereo not drawn) [Compound 096, 2-(cyclopropylamino)-6-(5-methyl-4-prop-2-enoyl-2,3-dihydroquinoxalin-1-yl)-8-tetrahydrofuran-3-yl-pyrido[2,3-d]pyrimidin-7-one]	≤ 0.25 µM	≤ 0.25 µM
C=C(F)C(=O)NC1CCN(c2cc3cnc(Nc4cnn(CCO)c4)nc3n(C)c2=O)CC1 [Compound 018]	≥ 2.5 µM	≥ 2.5 µM
C=CC(=O)N1CCN(c2cc3cnc(Nc4cnn(CCO)c4)nc3n(C)c2=O)c2cccc(C)c21 [Compound 038]	≤ 0.25 µM	≤ 0.25 µM
C=CC(=O)N1CCN(c2cc3cnc(Nc4ccc(OCCN(C)C)c(F)c4)nc3n(C)c2=O)c2cccc(C)c21 [Compound 075]	≤ 0.25 µM	≤ 0.25 µM
C=CC(=O)N1CCN(c2cc3cnc(N)nc3n([C@H]3CC[C@H](OC)CC3)c2=O)c2cccc(C)c21 [Compound 086, 2-amino-8-(4-methoxycyclohexyl)-6-(5-methyl-4-prop-2-enoyl-2,3-dihydroquinoxalin-1-yl)pyrido[2,3-d]pyrimidin-7-one]	≤ 0.25 µM	≤ 0.25 µM
C=CC(=O)N1CCN(c2cc3cnc(Nc4ccc(OC5CN(S(C)(=O)=O)C5)cc4)nc3n(C)c2=O)c2cccc(C)c21 [Compound 049]	≤ 0.25 µM	≤ 0.25 µM
C=CC(=O)N1CCN(c2cc3cnc(Nc4ccc(CC5CN(S(C)(=O)=O)C5)cc4)nc3n(C)c2=O)c2cccc(C)c21 [Compound 048, 8-methyl-6-(5-methyl-4-prop-2-enoyl-2,3-dihydroquinoxalin-1-yl)-2-[4-[(1-methylsulfonylazetidin-3-yl)methyl]anilino]pyrido[2,3-d]pyrimidin-7-one]	≤ 0.25 µM	≤ 0.25 µM
C=CC(=O)N1CCN(c2cc3cnc(N)nc3n(-c3cccc(Cl)c3)c2=O)c2cccc(C)c21 [Compound 091, 2-amino-8-(3-chlorophenyl)-6-(5-methyl-4-prop-2-enoyl-2,3-dihydroquinoxalin-1-yl)pyrido[2,3-d]pyrimidin-7-one]	≤ 0.25 µM	0.25 to 0.5 µM
C=CC(=O)N1CCN(c2cc3cnc(Nc4ccc(OCCN(C)C)cc4)nc3n(C)c2=O)c2cccc(C)c21 [Compound 033, 2-[4-[2-(dimethylamino)ethoxy]anilino]-8-methyl-6-(5-methyl-4-prop-2-enoyl-2,3-dihydroquinoxalin-1-yl)pyrido[2,3-d]pyrimidin-7-one]	≤ 0.25 µM	≤ 0.25 µM
C=CC(=O)N1CCN(c2cc3cnc(Nc4ccc(OC5CN(C)C5)cc4)nc3n(C)c2=O)c2cccc(C)c21 [Compound 076]	≤ 0.25 µM	≤ 0.25 µM
C=CC(=O)N1CCN(c2cc3cnc(Nc4ccc(N5CCN(C)CC5)cc4F)nc3n(C)c2=O)c2cccc(C)c21 [Compound 036]	≤ 0.25 µM	≤ 0.25 µM
C=CC(=O)N1CCN(c2cc3cnc(Nc4ccc(N5CCN(C)CC5)cc4)nc3n(C)c2=O)c2cccc(C)c21 [Compound 019, 8-methyl-2-[4-(4-methylpiperazin-1-yl)anilino]-6-(5-methyl-4-prop-2-enoyl-2,3-dihydroquinoxalin-1-yl)pyrido[2,3-d]pyrimidin-7-one]	≤ 0.25 µM	≤ 0.25 µM
C=CC(=O)N1CCN(c2cc3cnc(Nc4ccc(OCCN(C)C)cc4)nc3n(C)c2=O)c2cccc(O)c21 [Compound 066, 2-[4-[2-(dimethylamino)ethoxy]anilino]-6-(5-hydroxy-4-prop-2-enoyl-2,3-dihydroquinoxalin-1-yl)-8-methyl-pyrido[2,3-d]pyrimidin-7-one]	≤ 0.25 µM	≤ 0.25 µM
C=CC(=O)N1CCN(c2c(F)c3cnc(Nc4ccc(N5CCN(C)CC5)cc4)nc3n(C)c2=O)c2c(F)cc(F)c(C)c21 [Compound 059, 6-(6,8-difluoro-5-methyl-4-prop-2-enoyl-2,3-dihydroquinoxalin-1-yl)-5-fluoro-8-methyl-2-[4-(4-methylpiperazin-1-yl)anilino]pyrido[2,3-d]pyrimidin-7-one]	≤ 0.25 µM	≤ 0.25 µM
C=CC(=O)N1CCN(c2cc3cnc(N)nc3n(-c3ccc(N(C)CCN(C)C)cc3)c2=O)c2cccc(C)c21 [Compound 101, 2-amino-8-[4-[2-(dimethylamino)ethyl-methyl-amino]phenyl]-6-(5-methyl-4-prop-2-enoyl-2,3-dihydroquinoxalin-1-yl)pyrido[2,3-d]pyrimidin-7-one]	0.25 to 0.5 µM	0.5 to 2.5 µM
C=CC(=O)N1CCN(c2cc3cnc(Nc4ccc(CS(=O)(=O)NC)cc4)nc3n(C)c2=O)c2cccc(O)c21 [Compound 053]	≤ 0.25 µM	0.25 to 0.5 µM
C=CC(=O)N1CCN(c2cc3cnc(Nc4ccnc(OC)c4)nc3n(C)c2=O)c2cccc(C)c21 [Compound 062]	≤ 0.25 µM	≤ 0.25 µM
C=CC(=O)N1CCN(c2cc3cnc(Nc4ccc(N5CCN(C)CC5)cc4)nc3n(C)c2=O)C(=O)C1 [Compound 025, 8-methyl-2-[4-(4-methylpiperazin-1-yl)anilino]-6-(2-oxo-4-prop-2-enoyl-piperazin-1-yl)pyrido[2,3-d]pyrimidin-7-one]	≥ 2.5 µM	≥ 2.5 µM
C=CC(=O)N1CCN(c2cc3cnc(Nc4ccc(CS(=O)(=O)NC)cc4)nc3n(C)c2=O)c2cccc(C)c21 [Compound 034, N-methyl-1-[4-[[8-methyl-6-(5-methyl-4-prop-2-enoyl-2,3-dihydroquinoxalin-1-yl)-7-oxo-pyrido[2,3-d]pyrimidin-2-yl]amino]phenyl]methanesulfonamide]	≤ 0.25 µM	≤ 0.25 µM
C=CC(=O)N1CCN(c2cc3cnc(Nc4ccc(OCCN(C)C)cc4)nc3n(C3CCOC3)c2=O)c2cccc(C)c21 (stereo not drawn) [Compound 072, 2-[4-[2-(dimethylamino)ethoxy]anilino]-6-(5-methyl-4-prop-2-enoyl-2,3-dihydroquinoxalin-1-yl)-8-tetrahydrofuran-3-yl-pyrido[2,3-d]pyrimidin-7-one]	≤ 0.25 µM	≤ 0.25 µM
C=CC(=O)N1CCN(c2cc3cnc(Nc4ccccc4)nc3n(C3CC(OC)C3)c2=O)c2cccc(C)c21 (stereo not drawn) [Compound 084, 2-anilino-8-(3-methoxycyclobutyl)-6-(5-methyl-4-prop-2-enoyl-2,3-dihydroquinoxalin-1-yl)pyrido[2,3-d]pyrimidin-7-one]	≤ 0.25 µM	≤ 0.25 µM
C=CC(=O)Nc1c(O)cccc1Oc1cc2cnc(Nc3ccc(N4CCN(C)CC4)cc3)nc2n(C)c1=O [Compound 064, N-[2-hydroxy-6-[8-methyl-2-[4-(4-methylpiperazin-1-yl)anilino]-7-oxo-pyrido[2,3-d]pyrimidin-6-yl]oxy-phenyl]prop-2-enamide]	≤ 0.25 µM	0.25 to 0.5 µM
